Our source for the cytotoxicity values is patent US11345712B2, “Protein-targeting compounds and pharmaceutical compositions thereof, and their therapeutic applications” (BioTheryX, Inc., priority 2019, dated 2022).

The structures appear in SMILES notation.

The test has as its system MOLM-13 cells. Nature of the test: MOLM-13 cell viability assay (CellTiter-Glo). Format: cell-based. To be noted: Homo sapiens, MOLM-13, 72 h, 3 days, concentration of 1 μM, read-out: Antiproliferative Activity (inhibition, MOLM-13 cell viability). On the procedure: MOLM-13 cells were cultured in RPMI 1640 media supplemented with 10% fetal bovine serum, streptomycin, and penicillin. The cells were plated in white walled 96-well plates at 2,500 cells/well. The cells were incubated in DMSO (control) or an indicated compound for 3 days at 37° C. and 5% CO2. Following the incubation period, 100 μL of CELLTITER-GLO® (CTG) reagent was added to each well. Following a 10 minutes incubation with shaking, luminescence was measured using an ENVISION® Multimode plate reader.
Consider `O=C1CCC(N2Cc3c(CCNC(=O)C(=O)c4ccc(C5(C(F)(F)F)CC5)cc4)cccc3C2=O)C(=O)N1` (stereo not drawn) [Compound I-65, N-(2-(2-(2,6-dioxopiperidin-3-yl)-1-oxoisoindolin-4-yl)ethyl)-2-oxo-2-(4-(1-(trifluoromethyl)cyclopropyl)phenyl)acetamide], for which the cytotoxicity at 1 µM was less than 25%.

In the case of `Cc1cc(NC(=O)NCc2cc3c(s2)C(=O)N(C2CCC(=O)NC2=O)C3)cc(N(C)C)c1` (stereo not drawn) [II-49, 1-(3-(dimethylamino)-5-methylphenyl)-3-((5-(2,6-dioxopiperidin-3-yl)-6-oxo-5,6-dihydro-4H-thieno[2,3-c]pyrrol-2-yl)methyl)urea], the cytotoxicity at 1 µM is greater than 80%.

On to `CC(C)(C)c1ccc(C(=O)C(=O)NCc2csc3c2CN(C2CCC(=O)NC2=O)C3=O)cc1` (stereo not drawn) [Compound I-39, 2-(4-(tert-butyl)phenyl)-N-((5-(2,6-dioxopiperidin-3-yl)-6-oxo-5,6-dihydro-4H-thieno[2,3-c]pyrrol-3-yl)methyl)-2-oxoacetamide], for which the cytotoxicity at 1 µM is greater than 80%.

On to `Cc1ccc(NCCCNCc2scc3c2CN(C2CCC(=O)NC2=O)C3=O)cc1Cl` (stereo not drawn) [II-23, 3-(1-(((3-((3-chloro-4-methylphenyl)amino)propyl)amino)methyl)-4-oxo-4H-thieno[3,4-c]pyrrol-5(6H)-yl)piperidine-2,6-dione], for which the cytotoxicity at 1 µM was less than 25%.

Consider `O=C(Cc1ccc(N2CCOCC2)cc1)NCc1scc2c1CN(C1CCC(=O)NC1=O)C2=O` (stereo not drawn) [II-83, N-((5-(2,6-dioxopiperidin-3-yl)-4-oxo-5,6-dihydro-4H-thieno[3,4-c]pyrrol-1-yl)methyl)-2-(4-morpholinophenyl)acetamide], for which the cytotoxicity at 1 µM was less than 25%.

For `CCN(C)c1cc(NC(=O)NCc2cc3c(s2)C(=O)N(C2CCC(=O)NC2=O)C3)ccc1C` (stereo not drawn) [II-100, 1-((5-(2,6-dioxopiperidin-3-yl)-6-oxo-5,6-dihydro-4H-thieno[2,3-c]pyrrol-2-yl)methyl)-3-(3-(ethyl(methyl)amino)-4-methylphenyl)urea], the cytotoxicity at 1 µM was greater than 80%.

Turning to `O=C1CCC(N2Cc3cc(CNC(=O)C(=O)c4ccc(C(F)(F)F)cc4)ccc3C2=O)C(=O)N1` (stereo not drawn) [Compound I-87, N-((2-(2,6-dioxopiperidin-3-yl)-1-oxoisoindolin-5-yl)methyl)-2-oxo-2-(4-trifluoromethylphenyl)acetamide], the cytotoxicity at 1 µM is 25 to 50%.

Turning to `O=C(Cc1ccc(F)cc1)NCc1scc2c1CN(C1CCC(=O)NC1=O)C2=O` (stereo not drawn) [II-25, N-((5-(2,6-dioxopiperidin-3-yl)-4-oxo-5,6-dihydro-4H-thieno[3,4-c]pyrrol-1-yl)methyl)-2-(4-fluorophenyl)acetamide], the cytotoxicity at 1 µM was less than 25%.

In the case of `Cc1ccc(CC(=O)NCc2csc3c2CN(C2CCC(=O)NC2=O)C3=O)cc1Cl` (stereo not drawn) [II-57, 2-(3-chloro-4-methylphenyl)-N-((5-(2,6-dioxopiperidin-3-yl)-6-oxo-5,6-dihydro-4H-thieno[2,3-c]pyrrol-3-yl)methyl)acetamide], the cytotoxicity at 1 µM fell in the range of 50 to 80%.

Consider `Cc1ccc(CS(=O)(=O)NCc2scc3c2CN(C2CCC(=O)NC2=O)C3=O)cc1Cl` (stereo not drawn) [II-69, 1-(3-chloro-4-methylphenyl)-N-((5-(2,6-dioxopiperidin-3-yl)-4-oxo-5,6-dihydro-4H-thieno[3,4-c]pyrrol-1-yl)methyl)methanesulfonamide], for which the cytotoxicity at 1 µM fell in the range of 50 to 80%.

Regarding `CC(C)(C)c1ccc(C(=O)C(=O)NCc2ccc3c(c2)C(=O)N(C2CCC(=O)NC2=O)C3=O)cc1` (stereo not drawn) [Compound I-32, 2-(4-(tert-butyl)phenyl)-N-((2-(2,6-dioxopiperidin-3-yl)-1,3-dioxoisoindolin-5-yl)methyl)-2-oxoacetamide], the cytotoxicity at 1 µM is greater than 80%.

On to `Cc1ccc(NC(=O)NCc2cc3c(s2)C(=O)N([C@@H]2CCC(=O)NC2=O)C3)cc1Cl` [II-91, (R)-1-(3-chloro-4-methylphenyl)-3-((5-(2,6-dioxopiperidin-3-yl)-6-oxo-5,6-dihydro-4H-thieno[2,3-c]pyrrol-2-yl)methyl)urea], for which the cytotoxicity at 1 µM was greater than 80%.

In the case of `N#Cc1ccc(C(=O)C(=O)NCc2cccc3c2CN(C2CCC(=O)NC2=O)C3=O)cc1` (stereo not drawn) [Compound I-76, 2-(4-cyanophenyl)-N-((2-(2,6-dioxopiperidin-3-yl)-1-oxoisoindolin-4-yl)methyl)-2-oxoacetamide], the cytotoxicity at 1 µM is less than 25%.

Take `O=C1CCC(N2Cc3c(csc3CNC(=O)Nc3c(Cl)cccc3Cl)C2=O)C(=O)N1` (stereo not drawn) [II-43, 1-(2,6-dichlorophenyl)-3-((5-(2,6-dioxopiperidin-3-yl)-4-oxo-5,6-dihydro-4H-thieno[3,4-c]pyrrol-1-yl)methyl)urea]: the cytotoxicity at 1 µM was in the range of 25 to 50%.

`CC(C)(C)c1ccc(C(=O)C(=O)NCc2scc3c2C(=O)N(C2CCC(=O)NC2=O)C3=O)cc1` (stereo not drawn) [Compound I-13, 2-(4-(tert-butyl)phenyl)-N-((5-(2,6-dioxopiperidin-3-yl)-4,6-dioxo-5,6-dihydro-4H-thieno[3,4-c]pyrrol-1-yl)methyl)-2-oxoacetamide]: the cytotoxicity at 1 µM is less than 25%.

In the case of `Cc1ccc(NCCCCCNCc2scc3c2CN(C2CCC(=O)NC2=O)C3=O)cc1Cl` (stereo not drawn) [II-64, 3-(1-(((5-((3-chloro-4-methylphenyl)amino)pentyl)amino)methyl)-4-oxo-4H-thieno[3,4-c]pyrrol-5(6H)-yl)piperidine-2,6-dione], the cytotoxicity at 1 µM is less than 25%.

As for `CC1CCC(CC(=O)NCc2scc3c2CN(C2CCC(=O)NC2=O)C3=O)CC1` (stereo not drawn) [II-75, N-((5-(2,6-dioxopiperidin-3-yl)-4-oxo-5,6-dihydro-4H-thieno[3,4-c]pyrrol-1-yl)methyl)-2-(4-methylcyclohexyl)acetamide], the cytotoxicity at 1 µM is less than 25%.

For the compound `Cc1ccc(C(F)(F)C(=O)NCc2cc3c(s2)C(=O)N(C2CCC(=O)NC2=O)C3)cc1Cl` (stereo not drawn) [II-38, 2-(3-chloro-4-methylphenyl)-N-((5-(2,6-dioxopiperidin-3-yl)-6-oxo-5,6-dihydro-4H-thieno[2,3-c]pyrrol-2-yl)methyl)-2,2-difluoroacetamide], the cytotoxicity at 1 µM was less than 25%.

As for `Cc1ccc(C(=O)C(=O)NCc2cccc3c2CN(C2CCC(=O)NC2=O)C3=O)cc1` (stereo not drawn) [Compound I-72, N-((2-(2,6-dioxopiperidin-3-yl)-1-oxoisoindolin-4-yl)methyl)-2-oxo-2-(p-tolyl)acetamide], the cytotoxicity at 1 µM was less than 25%.

Turning to `O=C1CCC(N2Cc3c(CNC(=O)C(=O)c4ccc(F)cc4)cccc3C2=O)C(=O)N1` (stereo not drawn) [Compound I-81, 2-(4-fluorophenyl)-N-((2-(2,6-dioxopiperidin-3-yl)-1-oxoisoindolin-4-yl)methyl)-2-oxoacetamide], the cytotoxicity at 1 µM lay within 25 to 50%.

Turning to `CCC(C(=O)NCc1scc2c1CN(C1CCC(=O)NC1=O)C2=O)c1ccc(C)c(Cl)c1` (stereo not drawn) [II-87, 2-(3-chloro-4-methylphenyl)-N-((5-(2,6-dioxopiperidin-3-yl)-4-oxo-5,6-dihydro-4H-thieno[3,4-c]pyrrol-1-yl)methyl)butanamide], the cytotoxicity at 1 µM is less than 25%.

As for `Cc1ccc(NC(=O)NCc2cc3c(s2)C(=O)N(C2CCC(=O)NC2=O)C3=O)cc1N(C)C` (stereo not drawn) [II-114, 1-(3-(dimethylamino)-4-methylphenyl)-3-((5-(2,6-dioxopiperidin-3-yl)-4,6-dioxo-5,6-dihydro-4H-thieno[2,3-c]pyrrol-2-yl)methyl)urea], the cytotoxicity at 1 µM is 25 to 50%.

For the compound `CC(C)(C)c1cccc(C(=O)C(=O)NCc2ccc3c(c2)CN(C2CCC(=O)NC2=O)C3=O)c1` (stereo not drawn) [Compound I-33, 2-(3-(tert-butyl)phenyl)-N-((2-(2,6-dioxopiperidin-3-yl)-1-oxoisoindolin-5-yl)methyl)-2-oxoacetamide], the cytotoxicity at 1 µM was greater than 80%.

On to `COc1cc(OC)c(C(=O)C(=O)NCc2cccc3c2CN(C2CCC(=O)NC2=O)C3=O)c(OC)c1` (stereo not drawn) [Compound I-79, 2-(2,4,6-trimethoxyphenyl)-N-((2-(2,6-dioxopiperidin-3-yl)-1-oxoisoindolin-4-yl)methyl)-2-oxoacetamide], for which the cytotoxicity at 1 µM is less than 25%.

Regarding `Cc1cnc(NC(=O)NCc2scc3c2CN(C2CCC(=O)NC2=O)C3=O)nc1C(F)(F)F` (stereo not drawn) [II-40, 1-((5-(2,6-dioxopiperidin-3-yl)-4-oxo-5,6-dihydro-4H-thieno[3,4-c]pyrrol-1-yl)methyl)-3-(5-methyl-4-(trifluoromethyl)pyrimidin-2-yl)urea], the cytotoxicity at 1 µM is less than 25%.

As to `Cc1ccc(NC(=O)NCc2cc3c(s2)C(=O)N(C2CCC(=O)NC2=O)C3)cc1N1CCCC1` (stereo not drawn) [II-98, 1-((5-(2,6-dioxopiperidin-3-yl)-6-oxo-5,6-dihydro-4H-thieno[2,3-c]pyrrol-2-yl)methyl)-3-(4-methyl-3-(pyrrolidin-1-yl)phenyl)urea], the cytotoxicity at 1 µM was greater than 80%.

On to `Cc1ccc(NC(=O)NCc2cc3c(s2)C(=O)N([C@H]2CCC(=O)NC2=O)C3)cc1Cl` [II-90, (S)-1-(3-chloro-4-methylphenyl)-3-((5-(2,6-dioxopiperidin-3-yl)-6-oxo-5,6-dihydro-4H-thieno[2,3-c]pyrrol-2-yl)methyl)urea], for which the cytotoxicity at 1 µM is greater than 80%.

Turning to `CC(C)(C)c1ccc(C(F)(F)C(=O)NCc2scc3c2CN(C2CCC(=O)NC2=O)C3=O)cc1` (stereo not drawn) [II-129, 2-(4-(tert-butyl)phenyl)-N-((5-(2,6-dioxopiperidin-3-yl)-4-oxo-5,6-dihydro-4H-thieno[3,4-c]pyrrol-1-yl)methyl)-2,2-difluoroacetamide], the cytotoxicity at 1 µM is less than 25%.

For the compound `CC(C)(C)c1ccc(C2(C(=O)NCc3scc4c3CN(C3CCC(=O)NC3=O)C4=O)CC2)cc1` (stereo not drawn) [II-127, 1-(4-(tert-butyl)phenyl)-N-((5-(2,6-dioxopiperidin-3-yl)-4-oxo-5,6-dihydro-4H-thieno[3,4-c]pyrrol-1-yl)methyl)cyclopropane-1-carboxamide], the cytotoxicity at 1 µM was 25 to 50%.

With `CCN(CC)c1ccc(NC(=O)NCc2cc3c(s2)C(=O)N(C2CCC(=O)NC2=O)C3)cc1C` (stereo not drawn) [II-52, 1-(4-(diethylamino)-3-methylphenyl)-3-((5-(2,6-dioxopiperidin-3-yl)-6-oxo-5,6-dihydro-4H-thieno[2,3-c]pyrrol-2-yl)methyl)urea], the cytotoxicity at 1 µM is less than 25%.
